Among the data in patent publication US20100099652A1, “NOVEL COMPOSITION BASED ON CHOLEST-4-EN-3-ONE OXIME” (TROPHOS, priority 2007, published 2010) are stability and solubility values, retold here.

SMILES strings stand for the structures. Converted amounts (≈) assume the structure as drawn.

Data set [1] is described as follows: Stability of cholest-4-en-3-one oxime in different oils (impurities by HPLC UV at 255 nm). Particulars: 15 mg/ml, 60° C., 15 days. The data set is classed as physicochemical. As for the experimental part:
The stability of cholest-4-en-3-one oxime was tested in 12 different oils. The compound is added to the oil at a concentration of 15 mg/ml in the form of micronized powder, and the mixture is placed in an oven at 60° C. for 15 days. […] The major impurity obtained is cholestenone. Other impurities can also appear, certain of which are known (and known to be stable), whereas other impurities appearing are unknown, and the potential toxicity or stability of which is therefore not known.
The product is considered to be very stable (++, very stable) in a given oil if after the incubation for 15 days in the oven at 60° C., the percentage of the measured total area under the curve of the chromatogram obtained corresponding to peaks of degradation products of cholest-4-en-3-one oxime represents less than 1%, and these are known, stable products. The product is considered stable (+, stable) in an oil if after the 15 days spent in the oven at 60° C., the percentage of the measured total area under the curve of the chromatogram obtained corresponding to peaks of degradation products of cholest-4-en-3-one oxime represents less than 1%, but corresponds to unknown degradation products. The product is considered unstable (−, instable) in an oil if after the 15 days spent in the oven at 60° C., the percentage of the measured total area under the curve of the chromatogram obtained corresponding to peaks of degradation products of cholest-4-en-3-one oxime represents more than 1%.

A short description of data set [2]: Maximum solubility of cholest-4-en-3-one oxime in water and in different oils. The data set is classed as physicochemical.

As for `CC(C)CCC[C@@H](C)[C@H]1CC[C@H]2[C@@H]3CCC4=CC(=NO)CC[C@]4(C)[C@H]3CC[C@]12C` [cholest-4-en-3-one oxime], the stability result in data set [1] (Almond oil) is listed as “− (major instability of the product in the oil tested, with release of more than 1% degradation products, over 2 weeks at 60° C.)”; in data set [1] (Caster oil), “+ (compound which is stable in the oil tested, with release of less than 1% unknown degradation products, over 2 weeks at 60° C.)”; in data set [1] (Corn oil), “− (major instability of the product in the oil tested, with release of more than 1% degradation products, over 2 weeks at 60° C.)”; in data set [1] (Cotton oil), “++ (compound which is very stable in the oil tested, with release of less than 1% stable known degradation products, over 2 weeks at 60° C.)”; in data set [1] (Ground nut oil) it was “+ (compound which is stable in the oil tested, with release of less than 1% unknown degradation products, over 2 weeks at 60° C.)”; in data set [1] (Mixture of medium-chain triglycerides (ESTASAN ®, MYGLIOL ®)), “++ (compound which is very stable in the oil tested, with release of less than 1% stable known degradation products, over 2 weeks at 60° C.)”. Also, the stability entry is “− (major instability of the product in the oil tested, with release of more than 1% degradation products, over 2 weeks at 60° C.)” in data set [1] (Oleic acid); “++ (compound which is very stable in the oil tested, with release of less than 1% stable known degradation products, over 2 weeks at 60° C.)” in data set [1] (Olive oil); “+ (compound which is stable in the oil tested, with release of less than 1% unknown degradation products, over 2 weeks at 60° C.)” in data set [1] (Rapeseed oil); “++ (compound which is very stable in the oil tested, with release of less than 1% stable known degradation products, over 2 weeks at 60° C.)” in data set [1] (Sesame oil); “++ (compound which is very stable in the oil tested, with release of less than 1% stable known degradation products, over 2 weeks at 60° C.)” in data set [1] (Soya oil); “− (major instability of the product in the oil tested, with release of more than 1% degradation products, over 2 weeks at 60° C.)” in data set [1] (Sunflower oil). Besides, the solubility in data set [2] (castor oil, oil or lipid) is below 15 mg/mL; in data set [2] (cotton oil, oil or lipid) it was 28 mg/mL (≈ 70.1 mM); in data set [2] (ground nut oil, oil or lipid) it was below 15 mg/mL; in data set [2] (oil or lipid, Mixture of medium-chain triglycerides (ESTASAN ®, MYGLIOL ®)) it was 45 mg/mL (≈ 113 mM); in data set [2] (olive oil, oil or lipid), 40 mg/mL (≈ 100 mM); in data set [2] (rapeseed oil, oil or lipid), below 15 mg/mL. In addition, the solubility stood at 35 mg/mL (≈ 87.6 mM) in data set [2] (sesame oil, oil or lipid); 30 mg/mL (≈ 75.1 mM) in data set [2] (soya oil, oil or lipid); 0.001 mg/mL (≈ 0.0025 mM) in data set [2] (water).
